This passage reports IC50 results from article PMC9785230, “Glutamine Synthetase Contributes to the Regulation of Growth, Conidiation, Sclerotia Development, and Resistance to Oxidative Stress in the Fungus Aspergillus flavus” (Toxins, 2022).

The assay deals with T1, glutamine synthetase AflGsA (recombinant rAflGsA) (Aspergillus flavus, UniProt A0A7U2MSK3).
T1 construct: gene F9C07_2280198; 6× His-rAflGsA, AflgsA cDNA cloned into pET-28a, expressed in E. coli BL21 (DE3)
T1 sequence (A0A7U2MSK3 1-357): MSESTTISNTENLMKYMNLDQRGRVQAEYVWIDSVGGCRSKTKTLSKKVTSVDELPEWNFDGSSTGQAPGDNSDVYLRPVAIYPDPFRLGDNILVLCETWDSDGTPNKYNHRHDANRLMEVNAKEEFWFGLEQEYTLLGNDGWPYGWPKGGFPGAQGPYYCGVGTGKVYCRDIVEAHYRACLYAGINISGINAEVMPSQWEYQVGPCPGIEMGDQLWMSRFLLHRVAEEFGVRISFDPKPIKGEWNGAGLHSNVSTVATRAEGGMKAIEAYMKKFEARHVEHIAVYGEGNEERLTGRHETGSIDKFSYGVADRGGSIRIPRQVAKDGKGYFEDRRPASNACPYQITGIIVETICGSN
Nature of the assay: glutamine synthetase activity assay at […] nm with purified recombinant enzyme, IC50 curve. It is filed as biochemical.

For orientation: IC50 means the midpoint of a concentration-inhibition curve. `N[C@@H](CCCC(=O)O)C(=O)O` [L-α-aminoadipic acid]: the IC50 was determined as 288 µM.
